Experimental data published in patent publication US12391733B2, “Stapled intracellular-targeting antimicrobial peptides to treat infection” (priority 2016, dated 2025).
Positions of bridges follow the written chain, without caps; N, C: chain ends. Non-standard residues stand in square brackets, D forms with d. Residues, ends and D or L forms follow the SMILES beside them. R8 = C=CCCCCCC[C@@](C)(N)C(=O)O; S5 = C=CCCC[C@](C)(N)C(=O)O

How the values were obtained:
circular dichroism = conditions: 10 mM phosphate buffer; pH 7.4; ns °C; 100 uM
E. coli = type: cell-based, Escherichia coli; conditions: for Antimicrobial Activity NIC (μg/ml) E. coli: Table 1, microbroth dilution, refined MHB, 20-24 hours at 37° C.
Procedure: Antimicrobial Activity Assay The following microbroth dilution protocol was adapted to determine the MIC of each peptide. First, Mueller-Hinton broth (MHB) was passed through an anion exchange column to remove polyanionic species and generate refined MHB. This refined broth was then used in the standard microbroth dilution protocol devised by Hancock et al. for 96 well plates. […] Briefly, bacterial cells were grown overnight in refined MHB at 37° C. and then diluted and allowed to grow again for several hours. Serial dilutions of peptide stocks in water (10 μl) were prepared using clear round-bottom polypropylene 96-well plates. Then 90 μl of bacteria in refined MHB was added to give a final inoculum of 5×10^5 CFU/ml. The plates were then covered with porous tape to reduce evaporation, and incubated for 20-24 hours at 37° C.

[1] = test system: human red blood cells (RBCs); type: cell-based; conditions: for % Hemolysis at 50 μg/ml: red cells of human, 1 h
Excerpt: One of the key obstacles that have long impeded the use of AMPs in systemic infections such as sepsis is their tendency to lyse human cells, such as red blood cells (RBCs). Thus, it is critical to minimize hemolytic activity as much as possible to achieve a therapeutic window. […] Of note, in those circumstances where hydrocarbon staples increase hemolytic activity due to increasing hydrophobicity, the alkene moiety can be modified, e.g., by dihydroxylation, to install hydrophilic residues and potentially mitigate hemolysis.
Hemolytic Activity Assay For the determination of hemolytic activity, the following protocol was applied: human blood samples were centrifuged to isolate red blood cells (RBCs), which were then washed and suspended in phosphate-buffered saline to yield a 1% (v/v) suspension. This suspension was then added to serial dilutions of peptide stocks in water in clear round-bottom polypropylene 96-well plates and the plates incubated for 1 hour at 37° C. After incubation, the plates were centrifuged and the supernatant isolated to determine the amount of hemoglobin released using a spectrophotometer (570 nm). The minimum hemolytic concentration (MHC) was determined by assessing the peptide concentration at which there was less than 1% hemoglobin release.

SMILES	helicity (circular dichroism) [%]	Antimicrobial Activity NIC (μg/ml) E. coli (E. coli) [µg/mL]	antimicrobial activity (in words) (E. coli; compared to unstapled buforin II (F10W) and buforin II)	hemolytic activity (in words) [1]	% Hemolysis at 50 μg/ml [1] [%]
CC(C)C[C@H](NC(=O)CNC(=O)[C@H](C)NC(=O)[C@H](CCCNC(=N)N)NC(=O)[C@H](CO)NC(=O)[C@H](CO)NC(=O)[C@H](CCCNC(=N)N)NC(=O)[C@@H](N)[C@@H](C)O)C(=O)N[C@@]1(C)CCCC=CCCC[C@@](C)(C(=O)N[C@@H](CCCNC(=N)N)C(=O)N[C@H](C(=O)N[C@@H](Cc2c[nH]cn2)C(=O)N[C@@H](CCCNC(=N)N)C(=O)N[C@@H](CC(C)C)C(=O)N[C@@H](CC(C)C)C(=O)N[C@@H](CCCNC(=N)N)C(=O)N[C@@H](CCCCN)C(N)=O)C(C)C)NC(=O)[C@H](C(C)C)NC(=O)[C@@H]2CCCN2C(=O)[C@H](Cc2c[nH]c3ccccc23)NC1=O [BFStap(i + 4)7] (H-TRSSRAGL[S5]WPV[S5]RVHRLLRK-NH2; staple 9-13; N-terminus and C-terminus assumed)	6.9	6.3	greatest increase in antimicrobial activity	low hemolytic activity	3.4
CC(C)C[C@H](NC(=O)[C@H](CC(C)C)NC(=O)[C@H](CCCNC(=N)N)NC(=O)[C@H](Cc1c[nH]cn1)NC(=O)[C@@H](NC(=O)[C@H](CCCNC(=N)N)NC(=O)CNC(=O)[C@]1(C)CCCC=CCCC[C@](C)(NC(=O)CNC(=O)[C@H](C)NC(=O)[C@H](CCCNC(=N)N)NC(=O)[C@H](CO)NC(=O)[C@H](CO)NC(=O)[C@H](CCCNC(=N)N)NC(=O)[C@@H](N)[C@@H](C)O)C(=O)N[C@@H](CCC(N)=O)C(=O)N[C@@H](Cc2c[nH]c3ccccc23)C(=O)N2CCC[C@H]2C(=O)N1)C(C)C)C(=O)N[C@@H](CCCNC(=N)N)C(=O)N[C@@H](CCCCN)C(N)=O [BFStap(i + 4)8] (H-TRSSRAG[S5]QWP[S5]GRVHRLLRK-NH2; staple 8-12; N-terminus and C-terminus assumed)	2.3	29.2			2.8
CC(C)C[C@@H]1NC(=O)CNC(=O)[C@H](C)NC(=O)[C@@](C)(NC(=O)[C@H](CO)NC(=O)[C@H](CO)NC(=O)[C@H](CCCNC(=N)N)NC(=O)[C@@H](N)[C@@H](C)O)CCCC=CCCC[C@@](C)(C(=O)N[C@@H](Cc2c[nH]c3ccccc23)C(=O)N2CCC[C@H]2C(=O)N[C@H](C(=O)NCC(=O)N[C@@H](CCCNC(=N)N)C(=O)N[C@H](C(=O)N[C@@H](Cc2c[nH]cn2)C(=O)N[C@@H](CCCNC(=N)N)C(=O)N[C@@H](CC(C)C)C(=O)N[C@@H](CC(C)C)C(=O)N[C@@H](CCCNC(=N)N)C(=O)N[C@@H](CCCCN)C(N)=O)C(C)C)C(C)C)NC1=O [BFStap(i + 4)9] (H-TRSS[S5]AGL[S5]WPVGRVHRLLRK-NH2; staple 5-9; N-terminus and C-terminus assumed)	11.7	50.0			2.5
CC(C)C[C@H](NC(=O)[C@H](CC(C)C)NC(=O)[C@H](CCCNC(=N)N)NC(=O)[C@H](Cc1c[nH]cn1)NC(=O)[C@@H](NC(=O)[C@H](CCCNC(=N)N)NC(=O)CNC(=O)[C@@H](NC(=O)[C@@H]1CCCN1C(=O)[C@H](Cc1c[nH]c2ccccc12)NC(=O)[C@H](CCC(N)=O)NC(=O)[C@]1(C)CCCC=CCCC[C@](C)(NC(=O)[C@H](CO)NC(=O)[C@H](CCCNC(=N)N)NC(=O)[C@@H](N)[C@@H](C)O)C(=O)N[C@@H](CCCNC(=N)N)C(=O)N[C@@H](C)C(=O)NCC(=O)N1)C(C)C)C(C)C)C(=O)N[C@@H](CCCNC(=N)N)C(=O)N[C@@H](CCCCN)C(N)=O [BFStap(i + 4)10] (H-TRS[S5]RAG[S5]QWPVGRVHRLLRK-NH2; staple 4-8; N-terminus and C-terminus assumed)	20.9	100			2.4
CC(C)C[C@H](NC(=O)CNC(=O)[C@]1(C)CCCC=CCCC[C@](C)(NC(=O)[C@@H](N)[C@@H](C)O)C(=O)N[C@@H](CO)C(=O)N[C@@H](CO)C(=O)N[C@@H](CCCNC(=N)N)C(=O)N1)C(=O)N[C@@H](CCC(N)=O)C(=O)N[C@@H](Cc1c[nH]c2ccccc12)C(=O)N1CCC[C@H]1C(=O)N[C@H](C(=O)NCC(=O)N[C@@H](CCCNC(=N)N)C(=O)N[C@H](C(=O)N[C@@H](Cc1c[nH]cn1)C(=O)N[C@@H](CCCNC(=N)N)C(=O)N[C@@H](CC(C)C)C(=O)N[C@@H](CC(C)C)C(=O)N[C@@H](CCCNC(=N)N)C(=O)N[C@@H](CCCCN)C(N)=O)C(C)C)C(C)C [BFStap(i + 4)12] (H-T[S5]SSR[S5]GLQWPVGRVHRLLRK-NH2; staple 2-6; N-terminus and C-terminus assumed)	5.3	>100			2.4
CC(C)C[C@H](NC(=O)CNC(=O)[C@H](C)NC(=O)[C@]1(C)CCCC=CCCC[C@](C)(N)C(=O)N[C@@H](CCCNC(=N)N)C(=O)N[C@@H](CO)C(=O)N[C@@H](CO)C(=O)N1)C(=O)N[C@@H](CCC(N)=O)C(=O)N[C@@H](Cc1c[nH]c2ccccc12)C(=O)N1CCC[C@H]1C(=O)N[C@H](C(=O)NCC(=O)N[C@@H](CCCNC(=N)N)C(=O)N[C@H](C(=O)N[C@@H](Cc1c[nH]cn1)C(=O)N[C@@H](CCCNC(=N)N)C(=O)N[C@@H](CC(C)C)C(=O)N[C@@H](CC(C)C)C(=O)N[C@@H](CCCNC(=N)N)C(=O)N[C@@H](CCCCN)C(N)=O)C(C)C)C(C)C [BFStap(i + 4)13] (H-[S5]RSS[S5]AGLQWPVGRVHRLLRK-NH2; staple 1-5; N-terminus and C-terminus assumed)	0	>100			2.4
CC(C)C[C@H](NC(=O)CNC(=O)[C@H](C)NC(=O)[C@H](CCCNC(=N)N)NC(=O)[C@H](CO)NC(=O)[C@H](CO)NC(=O)[C@H](CCCNC(=N)N)NC(=O)[C@@H](N)[C@@H](C)O)C(=O)N[C@@H](CCC(N)=O)C(=O)N[C@@H](Cc1c[nH]c2ccccc12)C(=O)N1CCC[C@H]1C(=O)N[C@H](C(=O)NCC(=O)N[C@]1(C)CCCCCCC=CCCC[C@@](C)(C(N)=O)NC(=O)[C@H](CCCNC(=N)N)NC(=O)[C@H](CC(C)C)NC(=O)[C@H](CC(C)C)NC(=O)[C@H](CCCNC(=N)N)NC(=O)[C@H](Cc2c[nH]cn2)NC(=O)[C@H](C(C)C)NC1=O)C(C)C [BFStap(i + 7)1] (H-TRSSRAGLQWPVG[R8]VHRLLR[S5]-NH2; staple 14-21; N-terminus and C-terminus assumed)	16.9	10.4			16.6
CC(C)C[C@H](NC(=O)CNC(=O)[C@H](C)NC(=O)[C@H](CCCNC(=N)N)NC(=O)[C@H](CO)NC(=O)[C@H](CO)NC(=O)[C@H](CCCNC(=N)N)NC(=O)[C@@H](N)[C@@H](C)O)C(=O)N[C@@H](CCC(N)=O)C(=O)N[C@@H](Cc1c[nH]c2ccccc12)C(=O)N1CCC[C@H]1C(=O)N[C@H](C(=O)N[C@]1(C)CCCCCCC=CCCC[C@@](C)(C(=O)N[C@@H](CCCCN)C(N)=O)NC(=O)[C@H](CC(C)C)NC(=O)[C@H](CC(C)C)NC(=O)[C@H](CCCNC(=N)N)NC(=O)[C@H](Cc2c[nH]cn2)NC(=O)[C@H](C(C)C)NC(=O)[C@H](CCCNC(=N)N)NC1=O)C(C)C [BFStap(i + 7)2] (H-TRSSRAGLQWPV[R8]RVHRLL[S5]K-NH2; staple 13-20; N-terminus and C-terminus assumed)	15.6	33.3			3.1
